This is an account of results in PubChem BioAssay (NCI).

What all share (test): NCI-60 cell line screen, 48 h
The test system of assay [1] is LOX IMVI melanoma.
In assay [2] the test system is MOLT-4 leukemia.
For assay [3], the system named is NCI-H522 lung.
Assay [4] has as its system U251 CNS.
In assay [5] the test system is NCI-H23 lung.
For assay [6], the system named is IGROV1 ovarian.
In assay [7] the test system is A549 NSCLC.
Assay [8] concerns OVCAR-4 ovarian.
The test system of assay [9] is NCI/ADR-RES ovarian.
Assay [10] concerns DU-145 prostate.

Several values for one entry are separate records, joined by “and”; a condition that tells them apart may be missing. Equal values may be shown once.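 Each compound was tested at five concentrations against cells in 96-well plates for 48 hours. GI50 is the concentration that inhibits growth by half. Definition used: TGI = concentration required for complete inhibition of growth.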

`O=C(Cc1ccccc1)NN1C(=O)C(Cl)C1c1ccccc1Cl` (configuration not stated): the TGI was above 59.5 µM in assay [1]; 62.8 µM in [2]; 28 µM in [3]; above 100 µM in assay [4]; above 100 µM in assay [5]; above 93.1 µM in assay [6]. The TGI in assay [7] and in [8] was above 100 µM each time.
Turning to `Cc1cc2ncn(-c3nc4ccccc4nc3C(C#N)S(C)(=O)=O)c2cc1C` (configuration not stated), the TGI in [1], in assay [2], in assay [3], in assay [4], in [5] and in assay [6] was above 100 µM throughout. Further, the TGI in assay [7] and in assay [8] was above 100 µM throughout.
Regarding `Brc1ccc(C2C3CSc4ccccc4C3=NN2c2ccccc2)cc1` (configuration not stated), the TGI in [1], in assay [2], in assay [4], in assay [5], in [6] and in [7] was above 100 µM in each case. Further, the TGI was above 100 µM in assay [9], above 100 µM in [10] and 91.7 µM in assay [8].
Turning to `N#CCCn1[nH]c(=O)c(Cl)c(Cl)c1=O`, the TGI is 28.3 µM in assay [1]; 37.4 µM in assay [2]; 41.3 µM in assay [3]; 30.3 µM in assay [4]; 29.3 µM in assay [5]; 33.6 µM in assay [6]. In addition, the TGI in assay [7] was 59.4 µM; in [8], 32 µM.
With `CSc1nc(=S)[nH]c2c1c(C)nn2-c1ccccc1`, the TGI in assay [1] was above 100 µM; in [2] it was 45.3 µM; in assay [3], 65.4 µM; in [4], above 100 µM; in assay [5], 45.8 µM; in assay [7] it was above 100 µM. Moreover, the TGI in assay [10] stood at 40.6 µM; in [8], 40.9 µM.
For the molecule `COC(=O)C(=O)C(C(=O)OC)C(=O)C(=O)Nc1c(C)cccc1C` (configuration not stated), the TGI in assay [1], in assay [2], in assay [3], in assay [4], in [5] and in [6] was above 100 µM each time. Further, the TGI in [7] and in assay [8] was above 100 µM in each case.
As to `COc1cc2c(c(OC)c1OC)-c1ccc(SC)c(=O)cc1[C@@H](NCc1ccc(F)cc1)CC2`, the TGI in [1] was 11.9 µM and 13.5 µM; in assay [2], 75 µM and > 100 µM; in assay [6], 75 µM; in assay [7] it was 75 µM and > 100 µM; in assay [8], above 100 µM.
`CC(C)N(C(=O)C12C3C4C1C1C2C3C41C#N)C(C)C` (configuration not stated): the TGI in assay [1] was above 67.2 µM; in assay [2] it was above 100 µM; in [3], above 100 µM; in assay [4] it was above 100 µM; in [5] it was above 100 µM; in assay [6], above 100 µM. In addition, the TGI in assay [7] and in [8] was above 100 µM in each case.
On to `Cc1ccc(S(=O)c2cccs2)cc1` (configuration not stated), for which the TGI in assay [2], in assay [4], in assay [5], in [7], in assay [9] and in assay [10] was above 100 µM in each case.
On to `CC(C)(C)OC(=O)NC1CCCC1C(=O)C1=CCCC1` (configuration not stated), for which the TGI in assay [1], in [2], in [4], in assay [5], in [6] and in [7] was above 100 µM throughout. Moreover, the TGI in assay [9], in [10] and in assay [8] was above 100 µM in each case.
As for `COC(=O)C1(NC(=O)C(Cc2ccccc2)N(C(=O)OC(C)(C)C)C(=O)OC(C)(C)C)CCCC1` (configuration not stated), the TGI in assay [1], in [2], in [4], in [5], in assay [6] and in assay [7] was above 100 µM each time. The TGI in assay [9] and in assay [10] was above 100 µM in each case.
Regarding `CN(C)CCNc1ccc2ncn3c4ccccc4c(=O)c1c23`, the TGI in assay [1] was 2.92 µM; in assay [2], above 100 µM; in [3], 5.41 µM; in [4], 15.8 µM; in assay [5], 14.5 µM; in assay [6] it was 11.9 µM. Further, the TGI in assay [7] is 5.79 µM; in assay [8], 5 µM.
With `CC(C)(C)N=CN1C=Cc2nc3ccccc3cc2C1`, the TGI in assay [1] was 73.8 µM; in [2] it was above 100 µM; in assay [3], above 100 µM; in assay [4], above 100 µM; in assay [5], above 100 µM; in assay [6], above 100 µM. In addition, the TGI in assay [7] and in assay [8] was above 100 µM each time.
`CC(C)c1cccc(C(C)C)c1NC(=O)C(=O)Cc1nc2ccc([N+](=O)[O-])cc2[nH]c1=O`: the TGI was above 100 µM in assay [1]; above 100 µM in assay [2]; 54.4 µM in assay [3]; above 100 µM in [5]; above 100 µM in [6]; above 100 µM in assay [7]. For the same molecule, the TGI in assay [8] was above 100 µM.
Regarding `CCCCCCCC/C=C1\CCC(CN(C)C)C1=O` (configuration not stated), the TGI came out at 4.09 µM in assay [1]; 10.1 µM in assay [2]; 13.3 µM in assay [3]; 4.38 µM in assay [4]; 24.4 µM in assay [5]; 20.8 µM in assay [6]. Moreover, the TGI came out at 39.9 µM in assay [7] and 29.1 µM in assay [8].
Regarding `CCOc1ccccc1N=Nc1ccc2oc(=O)c(C(C)=O)cc2c1`, the TGI in assay [1], in [2], in assay [3], in [4], in [5] and in [6] was above 100 µM each time. Besides, the TGI in [7] and in assay [8] was above 100 µM each time.
Take `O=[N+]([O-])c1ccc(SN=S=NSc2cccc(SN=S=NSc3ccc([N+](=O)[O-])cc3)c2)cc1`: the TGI in [1] was 35.5 µM; in assay [2], above 100 µM; in assay [3], 34.3 µM; in assay [4], 32 µM; in [6], above 100 µM; in [7] it was above 100 µM. Besides, the TGI in [9] and in assay [8] was above 100 µM each time.
Turning to `Nc1nncc2c1c(Br)cn2C1OC(CO)C(O)C1O` (configuration not stated), the TGI in assay [1] is above 100 µM; in assay [2], above 100 µM; in [3], above 100 µM; in assay [4], above 100 µM; in assay [5], above 67.6 µM; in [6], above 100 µM. The TGI in assay [7] and in [8] was above 100 µM in each case.
For `CN(C)CCN(C)P12(Oc3ccccc3O1)Oc1c(Cl)c(Cl)c(Cl)c(Cl)c1O2`, the TGI in assay [1], in assay [2], in assay [4], in [5], in assay [6] and in assay [7] was above 100 µM throughout. Further, the TGI in [9], in assay [10] and in assay [8] was above 100 µM throughout.
For the molecule `CC(C)[C@@H]1CC[C@@H](C)C[C@H]1OC(=O)c1c2n(c3ccccc13)C[C@H]1OC(C)(C)O[C@@H]21`, the TGI in assay [1] is above 100 µM; in assay [2] it was above 100 µM; in [4], 32.5 µM; in assay [5] it was 48.9 µM; in assay [6], above 100 µM; in assay [7], above 100 µM. The TGI in assay [9], in [10] and in assay [8] was above 100 µM throughout.
Turning to `O=Cc1c[nH]c2c(=O)[nH]cnc12`, the TGI in [1], in assay [2], in assay [3], in assay [5], in [6] and in [7] was above 100 µM each time.
With `CCS(=O)C(=O)N(O)c1ccc(Cl)cc1` (configuration not stated), the TGI was 53.1 µM in assay [1]; 25 µM in assay [2]; 44.6 µM in assay [4]; above 100 µM in assay [7]; 81.4 µM in [9]; above 100 µM in [10]. The same molecule had a TGI in assay [8] above 100 µM.
With `Nc1nc2c(N)cc(C(F)(F)F)cc2nc1-c1ccccc1`, the TGI in [1], in assay [2], in assay [3], in assay [4], in [5] and in assay [6] was above 100 µM in each case. For the same molecule, the TGI in [7] and in [8] was above 100 µM each time.
For the molecule `CCOC(=O)c1c2ccc(/C=C/c3ccccn3)ccc-2c(C(=O)OCC)c1N`, the TGI in assay [1], in [2], in assay [3], in [5], in assay [6] and in assay [7] was above 100 µM throughout. The TGI in assay [8] was above 100 µM.
With `COC(=O)C1CC2C=CC=CC(=O)C2(C)C1` (configuration not stated), the TGI in assay [1], in assay [2], in assay [4], in assay [5], in assay [6] and in [7] was above 100 µM in each case. The molecule also gave a TGI in assay [8] above 100 µM.
As to `COc1ccc(N2C(=O)c3c(c4[nH]c5ccccc5c4c4ccc(C(C)(C)C)cc34)C2=O)cc1`, the TGI is above 100 µM in assay [1]; 52 µM in [2]; above 100 µM in [3]; 42.7 µM in assay [4]; 51 µM in [5]; above 100 µM in assay [6]. Moreover, the TGI in assay [7] is above 100 µM; in assay [8] it was 52.9 µM.
In the case of `CC1=C(c2nc3ccccc3s2)C(=O)OC1(C)C`, the TGI in assay [1], in assay [2], in assay [3], in assay [4], in assay [5] and in assay [7] was above 100 µM each time. The molecule further had a TGI in assay [8] above 100 µM.
Regarding `Cc1c(O)c(=O)ccn1CCN`, the TGI in [1], in assay [2], in [3], in [4], in assay [5] and in [6] was above 100 µM throughout. Moreover, the TGI in assay [7] and in assay [8] was above 100 µM each time.
For `COc1ccc(C2c3cc4c(cc3OC(NNc3ccccc3)C2C)OCO4)cc1` (configuration not stated), the TGI in [1] is above 100 µM; in [2], above 100 µM; in assay [3], 94.6 µM; in [4] it was above 100 µM; in [5], above 100 µM; in assay [6] it was above 100 µM. The TGI in [7] and in assay [10] was above 100 µM throughout.
For `CCOC1=C2N=C(C(CC)c3ccccc3F)N=C2C(=O)c2ccccc21` (configuration not stated), the TGI in assay [2], in assay [3], in assay [4], in assay [5], in [7] and in assay [8] was above 100 µM in each case.
Regarding `O=c1[nH]nc(Cc2ccccc2)n1/N=C/c1cccs1`, the TGI in assay [1], in assay [2], in assay [4], in assay [5], in assay [7] and in [9] was above 100 µM in each case. Moreover, the TGI in assay [10] and in assay [8] was above 100 µM in each case.
`O=C1[C@@H]2C(c3ccc(Br)cc3)=NO[C@@H]2C(=O)N1c1ccc(Cc2ccc(N3C(=O)[C@H]4C(c5ccc(Br)cc5)=NO[C@H]4C3=O)cc2)cc1`: the GI50 in assay [2], in assay [3], in assay [6] and in [8] was above 40 µM throughout. The TGI in assay [2] is above 40 µM; in assay [3], above 40 µM; in assay [4] it was above 3.48 µM; in assay [5], above 3.48 µM; in assay [6], above 40 µM; in assay [7], above 3.48 µM. The molecule further displayed a TGI in [8] above 40 µM.
For the molecule `N#CC(NNC(=O)Cc1ccccc1)c1cccc(O)c1` (configuration not stated), the TGI in [1], in assay [2], in assay [3], in assay [4], in assay [5] and in [6] was above 100 µM throughout. The TGI in [7] and in assay [8] was above 100 µM each time.
